± gives the expanded uncertainty stated by the source.
Conditions: Liquid

Question: For `FC(F)C(F)(F)F` [pentafluoroethane], which “vapor or sublimation pressure” value (243.15 K) is on record?
Answer: Its value is 228.5 ± 6.1 kPa.

Question: And the “vapor or sublimation pressure” value (253.15 K)?
Answer: The value was 337.9 ± 8.5 kPa.

Question: What about the “vapor or sublimation pressure” value (263.15 K) of the same compound?
Answer: Its value is 483.1 ± 12 kPa.

Question: And the “vapor or sublimation pressure” value (272.15 K)?
Answer: Its value is 650.1 ± 16 kPa.

Question: What about the “vapor or sublimation pressure” value (283.15 K) of the same compound?
Answer: The value was 908.8 ± 23 kPa.

Question: What about the “vapor or sublimation pressure” value (293.15 K) of the same compound?
Answer: The value was 1204.5 ± 30 kPa.

Question: What about the “vapor or sublimation pressure” value (303.15 K) of the same compound?
Answer: Its value is 1566.8 ± 39 kPa.

Question: What about the “vapor or sublimation pressure” value (313.15 K) of the same compound?
Answer: Its value is 2005.6 ± 50 kPa.

Question: What about the “vapor or sublimation pressure” value (323.15 K) of the same compound?
Answer: Its value is 2533.2 ± 63 kPa.

Question: What about the “vapor or sublimation pressure” value (333.15 K) of the same compound?
Answer: The value was 3167.4 ± 79 kPa.

Question: Which results are given for `CC(C)C` [2-methylpropane]?
Answer: vapor or sublimation pressure (243.15 K): 46.2 ± 3.2 kPa; vapor or sublimation pressure (253.15 K): 72 ± 3.5 kPa; vapor or sublimation pressure (263.15 K): 107.9 ± 3.9 kPa; vapor or sublimation pressure (272.15 K): 150.9 ± 4.6 kPa; vapor or sublimation pressure (283.15 K): 220.1 ± 5.9 kPa; vapor or sublimation pressure (293.15 K): 301.8 ± 7.6 kPa; vapor or sublimation pressure (303.15 K): 404.3 ± 10 kPa; vapor or sublimation pressure (313.15 K): 530.8 ± 13 kPa; vapor or sublimation pressure (323.15 K): 684.3 ± 17 kPa; vapor or sublimation pressure (333.15 K): 868.3 ± 22 kPa

From the NIST ThermoML archive (doi:10.1021/je7001539)
